Experimental data published in patent publication US10202343B2, “MIF modulators” (YALE UNIVERSITY, priority 2008, dated 2019).
Like-named read-outs stand apart in the source and are kept apart here.

Assays:
[1] = molecular target: T1, MIF-CD74 Binding (biotin-labeled recombinant human MIF, recombinant human MIF receptor CD74 ectodomain) (Homo sapiens, UniProt P14174); test: MIF-CD74 binding (capture) assay; set-up: concentration of C74 % MaxInhib (number after @): unit not given here; conditions: for Capture % Max. Inhib.: Table 3; for % Bound: Table 19
T1 sequence (P14174 2-115 limits assumed): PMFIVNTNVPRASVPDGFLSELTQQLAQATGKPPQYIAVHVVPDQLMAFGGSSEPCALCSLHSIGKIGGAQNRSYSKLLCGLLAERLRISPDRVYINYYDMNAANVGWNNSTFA

[2] = molecular target: T2, Human MIF (MIF tautomerase activity) (Homo sapiens, UniProt P14174); test: HPP tautomerase assay; type: biochemical; conditions: for IC50: read-out: HPP IC50
T2 construct: made in house
T2 sequence (P14174 2-115 limits assumed): T1 sequence (P14174 2-115 limits assumed)
Description: The HPP assay used was adapted to the microtiter plate format. […] Dilutions of the enzyme were prepared in 50 mM sodium phosphate buffer, 1 mM EDTA, pH 6.5. HPP was obtained from Aldrich. A stock solution of 60 mM HPP in ethanol is prepared and kept for maximally 4 hours on ice. The working solution (600 μM) of the substrate was prepared by diluting an aliquot of the stock solution with 50 mM sodium phosphate buffer, 1 mM EDTA, pH 6.5. […] Inhibitor and enzyme solutions were pipetted manually using an Eppendorf 12-channel pipette. Addition of substrate to start the reaction was performed with an Igel 96 pipetting station (OpalJena, Jena, Germany), which allows simultaneous addition of fluid to all 96 wells of the plates. Optical density (OD) was determined using a SPECTRAmax 250 reader (Molecular Devices). The reader was operated with the SoftmaxPro 2.6.1 software. Assay: Three wells of the microtiter plates were filled with buffer only, to allow for blanking. […] The last step was performed using the 96-channel pipetting device. The plate was then immediately (i.e. within a few seconds) transferred manually to the SPECTRAmax 250 reader and the optical density was determined (310 nm). From the data obtained, IC50 values were calculated using Excel® and XLfit® software.

[3] = Table 6, data cell c8, number before @
[4] = Table 13, data cell c5, number before @
[5] = Table 2, read-out: MIF-CD74 IC50
[6] = Table 19, data cell c5, read-out: CD74 IC50

For Cc1ccc2nc(-c3ccccc3)sc2c1 [MIF-138], the “concentration of CD74 % MaxInhib (number after @)” value (from here on “concentration of CD74 % MaxInhib”) ([1]; Table 8) was 0.078 µM, the “CD74 % MaxInhib” value ([1]; Table 8, number before @) was 20% and the “HPP IC50” value ([2]; Table 8) was “agonist”.

For COc1ccccc1-n1sc2ccc(Cl)cc2c1=O [Compound 31], the “Capture % Max. Inhib.” value [1] was 7%, the “CD74 % MaxInhib” value [1, 3] was 7% and the IC50 ([2]; Table 3) was 6.6 µM. For the same molecule, the IC50 ([2]; Table 6, data cell c7) was 6.6 µM.

Oc1ccc(-c2cn(-c3cccnc3)nn2)cc1 [MIF-007] was tested, and the IC50 ([2]; Table 20) was 970 µM.

For CC(=O)OCc1cccc(-n2sc3cc(F)ccc3c2=O)c1 [Compound 33], the “Capture % Max. Inhib.” value [1] was 12%, the “CD74 % MaxInhib” value [1, 3] was 12% and the IC50 ([2]; Table 3) was 2.3 µM. The IC50 ([2]; Table 6, data cell c7) was 2.3 µM.

In the case of O=C(c1cc2ccccc2o1)c1cc2cc(O)ccc2o1 [MIF-072], the “concentration of CD74 % MaxInhib” value ([1]; Table 13) is reported as 0.24 µM, the “CD74 % MaxInhib” value ([1]; Table 13, number before @) is reported as 9% and the “concentration of HPP Max Inhib (number after @)” value (“concentration of HPP Max Inhib” for short) ([2]; Table 13) is reported as 1000 µM. The “HPP Max Inhib” value [2, 4] was 30%.

For NC(=O)c1nc2ccccc2n1Cc1ccccc1 [MIF-062], the “concentration of CD74 % MaxInhib” value ([1]; Table 5) was 1.87 µM, the “CD74 % MaxInhib” value ([1]; Table 5, number before @) was 25% and the “HPP Max Inhib” value ([2]; Table 5) was 16%.

For O=C(c1cc2ccccc2o1)N1CCc2ccccc21 [Compound 21], the IC50 [1, 5] was 4 µM, the IC50 ([1]; Table 5, read-out: CD74 IC50) was 4 µM and the IC50 ([1]; Table 14, read-out: CD74 IC50) was 4 µM. It also gave an IC50 ([2]; Table 5) of 3 µM.

For Cc1cccc(Cn2cc(-c3ccc(O)cc3)nn2)c1 [MIF-031], the “% Bound” value [1] was 100%.

With c1ccc(Cn2c(Cc3ccccn3)nc3ccccc32)cc1 [Compound 19] the “concentration of CD74 % MaxInhib” value ([1]; Table 5) was 1.87 µM, the “CD74 % MaxInhib” value ([1]; Table 5, number before @) was 40% and the “HPP Max. Inhib.” value ([2]; Table 2) was 38%.

Work on COc1cccc(Cc2cn(-c3ccc(O)cc3)nn2)c1OC [MIF-084] yielded an IC50 ([2]; Table 18) of 530 µM.

In the case of COc1ccc2oc(C(=O)N3CCc4ccccc43)cc2c1 [MIF-088], the “concentration of CD74 % MaxInhib” value ([1]; Table 14) is reported as 0.24 µM, the “CD74 % MaxInhib” value ([1]; Table 14, number before @) is reported as 30% and the “concentration of HPP Max Inhib” value ([2]; Table 14) is reported as 5 µM. The “HPP Max Inhib” value ([2]; Table 14, number before @) was 23%.

In the case of N#Cc1nc2ccccc2n1Cc1ccccc1 [Compound 18, 1-Benzyl-1H-benzoimidazole-2-carbonitrile], the “concentration of CD74 % MaxInhib” value ([1]; Table 5) is reported as 0.078 µM.

O=c1c2ccc(F)cc2sn1-c1ccc(Cl)cc1 [Compound 25] was tested, and the “activity in the capture assay” value [1] was “agonist behavior”, the “MIF-CD74 IC50” value ([1]; Table 2) was “agonist” and the “CD74 IC50” value ([1]; Table 5) was “agonist”. For the same molecule, the IC50 ([2]; Table 2) was 4.2 µM.

COc1ccc(Cc2cn(-c3ccc(O)cc3)nn2)cc1OC [MIF-090] was tested, and the “concentration of C74 % MaxInhib (number after @)” value ([1]; Table 18) was 0.078, the “C74 % MaxInhib” value ([1]; Table 18, number before @) was 22% and the IC50 ([2]; Table 18) was 70 µM.

Oc1ccc(-c2cn(-c3cncc4ccccc34)nn2)cc1 [MIF-008] gave an IC50 ([2]; Table 20) of 32 µM.

With COc1cccc(Cn2c(=O)oc3ccc(CO)cc32)c1 [Compound 4, 5-hydroxymethyl-3-(3-methoxy-benzyl)-3H-benzooxazol-2-one] the “concentration of CD74 % MaxInhib” value ([1]; Table 4) was 0.039 µM, the “CD74 % MaxInhib” value ([1]; Table 4, number before @) was 27% and the “HPP Max Inhib” value ([2]; Table 1) was 44%. The “concentration of HPP Max Inhib” value ([2]; Table 4) was 200 µM.

In the case of Cc1ccc2nc(-c3ccc(Cl)cc3)oc2c1 [MIF-123], the “concentration of CD74 % MaxInhib” value ([1]; Table 7) is reported as 3.76 µM, the “CD74 % MaxInhib” value ([1]; Table 7, data cell c7, number before @) is reported as 26% and the “concentration of HPP % MaxInhib (number after @)” value ([2]; Table 7) is reported as 50 µM. For the same molecule, the “HPP % MaxInhib” value ([2]; Table 7, data cell c6, number before @) was 14%.

O=C(O)c1cccc(Cn2cc(-c3ccc(O)cc3)nn2)c1 [MIF-037] was tested, and the “% Bound” value [1] was 70-90%.

For COc1ccc(Cn2cc(-c3ccc(O)cc3)nn2)cc1 [MIF-004], the “% Bound” value [1] was 94%.

In the case of Cc1ccccc1Cn1cc(-c2ccc(O)cc2)nn1 [MIF-032], the “% Bound” value [1] is reported as 100%.

For COc1ccccc1Cn1c(=O)oc2ccc(F)cc21 [Compound 10], the “concentration of CD74 % MaxInhib” value ([1]; Table 4) was 0.039 µM.

With Oc1ccc(-c2cn(Cc3ccccc3)nn2)cc1 [MIF-002] the “% Bound” value [1] was 96% and the IC50 [1, 6] was 6000 µM.

With Cc1ccc2cc(C(=O)N3CCc4ccccc43)oc2c1 [MIF-082] the “concentration of CD74 % MaxInhib” value ([1]; Table 14) was 0.24 µM and the “CD74 % MaxInhib” value ([1]; Table 14, number before @) was 19%.

For Oc1ccc2c(c1)oc1ccccc12 [MIF-039], the IC50 ([1]; Table 17, read-out: CD74 IC50) was 900 µM.

For COc1cccc(Cn2cc(-c3ccc(O)cc3)nn2)c1 [MIF-005], the “% Bound” value [1] was 67% and the IC50 [1, 6] was 100 µM.

Cc1ccc2oc(C(=O)c3cc4ccccc4o3)cc2c1 [MIF-078] was tested, and the “concentration of HPP Max Inhib” value ([2]; Table 13) was 700 µM and the “HPP Max Inhib” value [2, 4] was 47%.

c1ccc(COc2ccc3cc(-c4cc[nH]c4)[nH]c3c2)cc1 [Compound 24] gave an IC50 [1, 5] of 5000 µM, an IC50 ([1]; Table 5, read-out: CD74 IC50) of 5000 µM and an IC50 ([1]; Table 22, read-out: CD74 IC50) of 5000 µM.

Work on Oc1ccc(-n2cc(Cc3ccccc3)nn2)cc1 [MIF-003] yielded an IC50 ([1]; Table 18, read-out: CD74 IC50) of 3.5 µM.

With O=Cc1cccc(-n2sc3cc(F)ccc3c2=O)c1 [MIF-135] the IC50 ([2]; Table 6, data cell c7) was 6 µM.

COCc1cccc(-n2sc3cc(F)ccc3c2=O)c1 [MIF-136] showed an IC50 ([2]; Table 6, data cell c7) of 2.4 µM.
